Experimental data: patent publication US11781110B2, “Induction of corneal endothelial cells” (The Regents of the University of California, priority 2016, dated 2023)

Columns and labels:
EFSC-derived NCSCs = assay: Differentiation of CECs from ocular neural crest stem cells; type: cell-based, human; details: added to the differentiation medium
Procedure: Differentiation of CECs from ocular neural crest stem cells. In order to test if CECs could be induced from the EFSC-derived NCSCs directly in vitro, NCSCs were seeded at low cell density on an FNC coated plate. […] They remained proliferative and formed a relatively homogenous monolayer of cells after a few passages (FIG. 5B). To further characterize the NCSC-derived CEC sheets, immunostaining for several typical CEC markers including tight junction protein 1 (TJP1/ZO-1), N-Cadherin, and Na+/K+ ATPase was performed (FIG. 5C).

[1] = test system: rabbit corneal endothelium; assay: Rabbit corneal endothelium injury model; type: in vivo; details: compared
CEC = CEC migration, proliferation and wound healing with ROCK inhibitor; type: cell-based; details: compared with Y-27632
[2] = test system: corneal endothelial cells (CECs); details: cited from earlier work
EFSCs = assay: Directed differentiation of eye field stem cells into ocular neural crest stem cells; type: cell-based, human; details: 3 μM in NCSC induction medium; after a week of induction
Procedure: Directed differentiation of eye field stem cells into ocular neural crest stem cells. […] The in vitro derivation of neural crest stem cells from PSCs has been previously described (Chambers et al., 2013; Lee et al., 2007). It was reasoned that, if EFSCs could be primed toward ocular neural crest lineage, the cells could serve as a direct and renewable source to generate CECs in culture. To direct EFSCs toward neural crest fate, EFSCs were seeded at low density, and neural crest lineage specification was initiated in NCSC induction medium supplemented with the presence of 3 μM CHIR 99021. […] Immunostaining also detected the expression of nuclear translocation of beta-catenin (FIG. 4C), an indication of increased WNT canonical signaling during neural crest formation.

Cc1cncc2cccc(S(=O)(=O)N3CCCNC[C@@H]3C)c12 [H-1125]
effect on differentiation of CECs (EFSC-derived NCSCs): improve the differentiation of CECs
wound healing effect [1]: better wound healing effect
effect on CEC migration, proliferation and wound healing (CEC): more significant stimulatory effect

C[C@@H](N)[C@H]1CC[C@H](C(=O)Nc2ccncc2)CC1 [Y-27632]
apoptosis of CECs [2]: inhibition of apoptosis
proliferation of corneal endothelial cells (CECs) [2]: increased proliferation
corneal endothelial wound healing ([2]; in vitro and in vivo): enhanced corneal endothelial wound healing

Cc1c[nH]c(-c2cnc(NCCNc3ccc(C#N)cn3)nc2-c2ccc(Cl)cc2Cl)n1 [CHIR 99021]
expression of NCSC surface marker HNK-1 (EFSCs): majority of EFSCs start to express a typical NCSC surface marker HNK-1
